Reference: paper PMC8151276, “An Integrated Approach toward NanoBRET Tracers for Analysis of GPCR Ligand Engagement” (Molecules, 2021)

Key:
Type in all cases: binding
[1] = target: T1, AVPR2 (Homo sapiens, UniProt P30518); assay: NanoBRET screen HiBiT-AVPR2 in HEK293; conditions: AVPR2
T1 construct: purchased Promega (in-house HiBiT-GPCR construct library, NanoBRET)
Experimental: (§1) Each tracer candidate was screened across the entire library of HiBiT-GPCR constructs using NanoBRET as the detection modality. As depicted in Figure 4A, the specificity of interactions was evaluated through decrease in BRET due to competitive displacement of a bound tracer by excess parental compound. Each tracer was analyzed for binding to each HiBiT-GPCR fusion in the absence and in the presence of competing parental compound. Briefly, HEK293 cells were transfected with HiBiT-GPCR constructs diluted into promoterless DNA to reduce expression and maximize translocation to the cell surface. Each tracer candidate was then screened at concentrations of 1 μM and 0.1 μM across cells expressing these fusions. Cells were treated for 1.5 h with tracer either alone or in the presence of 20 μM competing parental compound (i.e., control). BRET was measured upon addition of purified LgBiT and subsequent complementation with HiBiT genetically fused to a GPCR. The specificity of interactions was assessed through a decrease in BRET signal due to competitive displacement of the bound tracer. To further gauge the robustness of these interactions, the fold response over the control (i.e., BRETtracer/BRETcontrol) was calculated. We chose a 1.5-fold response, which translates to ≥7-fold signal over noise as the minimal threshold required to score an interaction as positive. […]. Below we highlight the screening results obtained for our exemplary fluorescent tracers based on Clozapine, Amitriptyline and AZD1283.
(§2) HiBiT-GPCR DNA constructs were diluted in 10 mM Tris pH 8 to a final concentration of 0.01 μg/μL, arrayed in 96-well plates and stored at −20 °C. For transfection, HEK293 cells were suspended in Opti-MEM (without phenol red) supplemented with 2% fetal bovine serum (Seradigm) and 100 units/mL penicillin–streptomycin (Gibco) at a final concentration of 220,000 cells/mL and dispensed into white 96-well plates at 90 μL/well. Subsequent transfections and screens were carried using an Agilent Bravo Automated Liquid Handling Platform. First, the 96-well HiBiT DNA arrays were diluted 25-fold in Opti-MEM (without serum or phenol red) to a final concentration of 0.0004 μg/μL and 20 μL of the diluted DNAs were transferred into new 96-well plates. Next, promoterless carrier DNA (1 μg/μL) was diluted 25-fold (0.04 μg/μL) and then dispensed into the diluted arrays at 20 μL/well. Following brief mixing, Viafect transfection reagent (Promega) diluted 16-fold into Opti-MEM was dispensed into the plates at 40 μL/well. After mixing by pipetting, plates were incubated for 10 min on the pipetting station deck. The DNA-transfection reagent complexes were then added to plates containing cells. To facilitate the screen, 10 μL of DNA-transfection reagent complexes were added in duplicates to the top 4 and bottom 4 rows, resulting in two identical 48-well arrays per plate. Plates with transfected cells were incubated for 18–20 h at 37 °C/5% CO2. A screen of each tracer across the entire library using two different concentrations requires duplicate plates of transfected cells. Depending on the number of tracers being screened, transfections can be scaled up using the same ratios. The next day, for each tracer, four 20× screening solutions in tracer dilution buffer (Promega) were prepared: two duplicates at final concentration of 20 μM and two duplicates at a final concentration of 2 μM. A competing unmodified compound was added to one of each duplicate at a final concentration of 400 μM. The four resulting solutions were diluted 4-fold in Opti-MEM without serum or phenol red to generate 5× solutions (5 µM and 0.5 µM tracer +/− 100 μM competing compound). To screen the library, a BioTek MultiFlo FX liquid dispenser was used to dispense 22.5 µL of tracer solution to the top 4 rows and 22.5 µL tracer + competing compound solution to the 4 bottom rows. Plates were briefly mixed on an orbital shaker and incubated for 1.5 h at room temperature. […]

[2] = target: T2, F2RL3 (Homo sapiens, UniProt Q96RI0); assay: NanoBRET screen HiBiT-F2RL3 in HEK293; conditions: F2RL3
T2 construct: purchased Promega (in-house HiBiT-GPCR construct library, NanoBRET)
T2 sequence (Q96RI0 18-385): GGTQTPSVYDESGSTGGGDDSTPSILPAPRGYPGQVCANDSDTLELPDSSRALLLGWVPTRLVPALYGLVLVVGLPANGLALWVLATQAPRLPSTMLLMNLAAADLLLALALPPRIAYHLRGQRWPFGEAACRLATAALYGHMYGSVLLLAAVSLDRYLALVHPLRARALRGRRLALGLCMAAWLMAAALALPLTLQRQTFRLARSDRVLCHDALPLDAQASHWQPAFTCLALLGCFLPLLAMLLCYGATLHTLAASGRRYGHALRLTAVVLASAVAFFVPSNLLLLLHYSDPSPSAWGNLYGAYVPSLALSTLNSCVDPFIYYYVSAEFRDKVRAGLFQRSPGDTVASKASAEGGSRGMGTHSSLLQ
Experimental: as §1, §2

[3] = target: T3, PDGFRB (Homo sapiens, UniProt P09619); assay: NanoBRET screen HiBiT-PDGFRB in HEK293; conditions: PDGFRB
T3 construct: purchased Promega (in-house HiBiT-GPCR construct library, NanoBRET)
T3 sequence (P09619 33-1106): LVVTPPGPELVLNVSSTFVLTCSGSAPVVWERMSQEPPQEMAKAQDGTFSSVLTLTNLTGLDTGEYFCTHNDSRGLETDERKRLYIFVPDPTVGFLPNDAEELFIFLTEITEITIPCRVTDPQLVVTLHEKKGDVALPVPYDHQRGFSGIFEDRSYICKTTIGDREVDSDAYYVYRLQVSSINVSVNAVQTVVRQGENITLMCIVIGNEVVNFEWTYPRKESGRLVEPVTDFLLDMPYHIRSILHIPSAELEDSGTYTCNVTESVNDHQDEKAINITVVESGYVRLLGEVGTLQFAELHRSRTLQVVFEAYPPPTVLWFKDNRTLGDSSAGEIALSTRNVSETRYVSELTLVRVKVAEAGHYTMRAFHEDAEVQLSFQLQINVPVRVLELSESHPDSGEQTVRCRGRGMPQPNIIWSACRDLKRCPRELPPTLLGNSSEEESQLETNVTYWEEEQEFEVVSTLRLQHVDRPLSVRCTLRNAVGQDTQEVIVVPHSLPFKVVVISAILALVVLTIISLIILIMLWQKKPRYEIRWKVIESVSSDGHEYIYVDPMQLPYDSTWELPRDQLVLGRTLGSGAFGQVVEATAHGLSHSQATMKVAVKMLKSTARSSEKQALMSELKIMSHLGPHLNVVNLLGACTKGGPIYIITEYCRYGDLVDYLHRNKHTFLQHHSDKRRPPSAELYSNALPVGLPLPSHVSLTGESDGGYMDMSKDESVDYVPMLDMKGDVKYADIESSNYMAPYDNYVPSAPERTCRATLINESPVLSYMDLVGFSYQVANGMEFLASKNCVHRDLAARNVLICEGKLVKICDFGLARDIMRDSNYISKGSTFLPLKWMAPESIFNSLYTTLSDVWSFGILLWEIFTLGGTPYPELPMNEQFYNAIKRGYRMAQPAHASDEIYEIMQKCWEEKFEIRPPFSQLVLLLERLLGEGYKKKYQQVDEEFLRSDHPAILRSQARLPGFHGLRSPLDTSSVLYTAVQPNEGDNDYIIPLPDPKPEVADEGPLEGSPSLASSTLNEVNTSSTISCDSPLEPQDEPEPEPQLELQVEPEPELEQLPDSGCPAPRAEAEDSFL
Experimental: as §1, §2

[4] = target: T4, GRM5 (Homo sapiens, UniProt P41594); assay: NanoBRET screen HiBiT-GRM5 in HEK293; conditions: GRM5
T4 construct: purchased Promega (in-house HiBiT-GPCR construct library, NanoBRET)
T4 sequence (P41594 21-1212): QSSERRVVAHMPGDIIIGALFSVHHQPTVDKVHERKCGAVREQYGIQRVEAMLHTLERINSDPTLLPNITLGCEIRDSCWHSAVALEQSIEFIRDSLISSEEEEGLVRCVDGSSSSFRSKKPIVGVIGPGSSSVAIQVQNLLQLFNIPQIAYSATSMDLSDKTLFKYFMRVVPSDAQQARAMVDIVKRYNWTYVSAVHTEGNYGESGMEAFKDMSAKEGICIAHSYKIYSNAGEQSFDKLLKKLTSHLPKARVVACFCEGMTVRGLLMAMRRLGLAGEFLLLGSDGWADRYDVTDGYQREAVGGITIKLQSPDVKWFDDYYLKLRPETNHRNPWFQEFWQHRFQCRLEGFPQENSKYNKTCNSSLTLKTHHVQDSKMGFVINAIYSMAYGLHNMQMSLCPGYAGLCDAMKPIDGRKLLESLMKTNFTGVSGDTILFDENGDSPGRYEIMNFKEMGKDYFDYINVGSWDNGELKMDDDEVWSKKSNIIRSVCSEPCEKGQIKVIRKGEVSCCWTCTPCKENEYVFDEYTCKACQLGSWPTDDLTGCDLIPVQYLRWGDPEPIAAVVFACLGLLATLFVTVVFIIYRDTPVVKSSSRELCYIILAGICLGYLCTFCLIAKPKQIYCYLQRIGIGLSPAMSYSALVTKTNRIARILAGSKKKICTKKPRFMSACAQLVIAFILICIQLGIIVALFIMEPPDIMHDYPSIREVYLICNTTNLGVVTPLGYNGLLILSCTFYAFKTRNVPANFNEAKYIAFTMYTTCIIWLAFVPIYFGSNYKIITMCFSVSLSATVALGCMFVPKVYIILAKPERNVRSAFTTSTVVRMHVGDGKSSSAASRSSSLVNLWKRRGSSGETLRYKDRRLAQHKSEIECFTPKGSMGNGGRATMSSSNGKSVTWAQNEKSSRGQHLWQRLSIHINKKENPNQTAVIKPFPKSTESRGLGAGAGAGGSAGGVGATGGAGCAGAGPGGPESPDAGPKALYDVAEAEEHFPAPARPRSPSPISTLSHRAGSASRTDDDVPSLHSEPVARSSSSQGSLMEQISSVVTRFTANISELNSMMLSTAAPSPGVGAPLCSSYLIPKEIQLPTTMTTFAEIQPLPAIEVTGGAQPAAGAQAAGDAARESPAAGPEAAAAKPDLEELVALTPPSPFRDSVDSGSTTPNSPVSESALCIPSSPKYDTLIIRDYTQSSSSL
Experimental: as §1, §2

[5] = target: T5, CYSLTR2 (Homo sapiens, UniProt Q9NS75); assay: NanoBRET screen HiBiT-CYSLTR2 in HEK293; conditions: CYSLTR2
T5 construct: purchased Promega (in-house HiBiT-GPCR construct library, NanoBRET)
T5 sequence (Q9NS75 1-346): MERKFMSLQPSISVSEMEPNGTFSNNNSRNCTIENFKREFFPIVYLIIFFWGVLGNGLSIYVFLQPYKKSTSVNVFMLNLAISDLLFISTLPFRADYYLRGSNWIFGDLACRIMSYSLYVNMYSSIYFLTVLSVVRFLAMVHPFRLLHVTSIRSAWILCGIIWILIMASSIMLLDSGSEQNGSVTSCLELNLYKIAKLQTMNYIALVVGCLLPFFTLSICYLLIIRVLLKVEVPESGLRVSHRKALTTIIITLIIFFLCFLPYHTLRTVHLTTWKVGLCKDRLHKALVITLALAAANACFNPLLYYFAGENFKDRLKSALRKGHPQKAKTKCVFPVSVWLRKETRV
Experimental: as §1, §2

[6] = target: T6, P2RY2 (Homo sapiens, UniProt P41231); assay: NanoBRET screen HiBiT-P2RY2 in HEK293; conditions: P2RY2
T6 construct: purchased Promega (in-house HiBiT-GPCR construct library, NanoBRET)
T6 sequence (P41231 whole entry): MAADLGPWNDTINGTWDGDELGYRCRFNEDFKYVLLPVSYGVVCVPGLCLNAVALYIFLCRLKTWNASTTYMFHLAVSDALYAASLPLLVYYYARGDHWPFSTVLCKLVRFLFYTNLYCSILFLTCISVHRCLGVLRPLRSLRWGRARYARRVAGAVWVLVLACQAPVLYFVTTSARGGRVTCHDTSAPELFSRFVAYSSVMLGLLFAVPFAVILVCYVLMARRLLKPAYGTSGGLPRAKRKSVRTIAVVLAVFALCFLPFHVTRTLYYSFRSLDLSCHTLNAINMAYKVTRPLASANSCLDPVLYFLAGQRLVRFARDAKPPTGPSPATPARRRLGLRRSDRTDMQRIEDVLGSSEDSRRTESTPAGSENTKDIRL
Experimental: as §1, §2

[7] = target: T7, P2RY10 (Homo sapiens, UniProt O00398); assay: NanoBRET screen HiBiT-P2RY10 in HEK293; conditions: P2RY10
T7 construct: purchased Promega (in-house HiBiT-GPCR construct library, NanoBRET)
T7 sequence (O00398 whole entry, one chain of several): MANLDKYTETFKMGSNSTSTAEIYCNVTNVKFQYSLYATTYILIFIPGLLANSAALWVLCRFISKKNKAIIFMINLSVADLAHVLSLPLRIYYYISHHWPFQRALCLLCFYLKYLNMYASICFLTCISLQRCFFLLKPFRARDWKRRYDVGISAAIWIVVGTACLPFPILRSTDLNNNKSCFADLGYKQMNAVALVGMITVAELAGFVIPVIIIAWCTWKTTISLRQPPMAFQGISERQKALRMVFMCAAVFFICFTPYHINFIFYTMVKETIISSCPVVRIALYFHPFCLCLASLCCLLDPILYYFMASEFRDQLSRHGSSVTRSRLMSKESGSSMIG
Experimental: as §1, §2

[8] = target: T8, RXFP4 (Homo sapiens, UniProt Q8TDU9); assay: NanoBRET screen HiBiT-RXFP4 in HEK293; conditions: RXFP4
T8 construct: purchased Promega (in-house HiBiT-GPCR construct library, NanoBRET)
T8 sequence (Q8TDU9 whole entry): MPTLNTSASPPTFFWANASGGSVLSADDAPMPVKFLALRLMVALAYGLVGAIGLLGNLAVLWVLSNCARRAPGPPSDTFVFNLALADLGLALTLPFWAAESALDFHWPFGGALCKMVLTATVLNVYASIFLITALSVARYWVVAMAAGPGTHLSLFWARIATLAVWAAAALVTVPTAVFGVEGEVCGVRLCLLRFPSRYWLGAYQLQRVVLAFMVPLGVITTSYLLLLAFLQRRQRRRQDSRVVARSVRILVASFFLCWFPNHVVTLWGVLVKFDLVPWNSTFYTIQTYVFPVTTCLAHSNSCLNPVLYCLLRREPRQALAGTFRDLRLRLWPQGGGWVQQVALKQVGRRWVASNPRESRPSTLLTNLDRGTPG
Experimental: as §1, §2

[9] = target: T9, P2RY1 (Homo sapiens, UniProt P47900); assay: NanoBRET screen HiBiT-P2RY1 in HEK293; conditions: P2RY1
T9 construct: purchased Promega (in-house HiBiT-GPCR construct library, NanoBRET)
T9 sequence (P47900 whole entry): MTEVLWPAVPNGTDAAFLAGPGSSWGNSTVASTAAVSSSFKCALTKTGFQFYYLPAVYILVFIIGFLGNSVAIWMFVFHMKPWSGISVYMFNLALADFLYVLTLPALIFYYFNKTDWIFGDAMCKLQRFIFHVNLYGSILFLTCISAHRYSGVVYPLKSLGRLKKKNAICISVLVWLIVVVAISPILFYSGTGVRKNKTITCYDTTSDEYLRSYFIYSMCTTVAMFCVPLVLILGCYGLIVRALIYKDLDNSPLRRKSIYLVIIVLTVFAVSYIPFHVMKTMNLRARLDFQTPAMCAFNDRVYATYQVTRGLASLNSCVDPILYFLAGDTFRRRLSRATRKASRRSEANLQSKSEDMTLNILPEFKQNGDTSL
Experimental: as §1, §2

T1 sequence (P30518 whole entry): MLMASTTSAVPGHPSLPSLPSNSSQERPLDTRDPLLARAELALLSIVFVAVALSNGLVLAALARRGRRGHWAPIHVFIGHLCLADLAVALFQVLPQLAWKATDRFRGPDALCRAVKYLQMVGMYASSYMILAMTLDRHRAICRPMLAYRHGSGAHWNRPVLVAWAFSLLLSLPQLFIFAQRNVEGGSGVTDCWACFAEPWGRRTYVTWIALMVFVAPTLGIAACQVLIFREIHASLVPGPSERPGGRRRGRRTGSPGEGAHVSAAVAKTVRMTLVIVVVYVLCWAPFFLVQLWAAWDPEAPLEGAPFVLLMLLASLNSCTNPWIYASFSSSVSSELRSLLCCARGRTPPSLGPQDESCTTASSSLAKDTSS

Row | Structure (SMILES) | NanoBRET Fold Response ([1]; tracer 0.1μM) | NanoBRET Fold Response ([1]; tracer 1μM) | NanoBRET Fold Response ([2]; tracer 0.1μM) | NanoBRET Fold Response ([2]; tracer 1μM) | NanoBRET Fold Response ([3]; tracer 0.1μM) | NanoBRET Fold Response ([3]; tracer 1μM) | NanoBRET Fold Response ([4]; tracer 0.1μM) | NanoBRET Fold Response ([4]; tracer 1μM) | NanoBRET Fold Response ([5]; tracer 0.1μM) | NanoBRET Fold Response ([5]; tracer 1μM) | NanoBRET Fold Response ([6]; tracer 0.1μM) | NanoBRET Fold Response ([6]; tracer 1μM) | NanoBRET Fold Response ([7]; tracer 0.1μM) | NanoBRET Fold Response ([7]; tracer 1μM) | NanoBRET Fold Response ([8]; tracer 0.1μM) | NanoBRET Fold Response ([8]; tracer 1μM) | NanoBRET Fold Response ([9]; tracer 0.1μM) | NanoBRET Fold Response ([9]; tracer 1μM) | other results
1 | O=C(CCc1ccc2n1[B-](F)(F)[N+]1=C(c3ccc[nH]3)C=CC1=C2)NCCOCCOCCNC(=O)OCCOCCN1CCN(C2=Nc3ccccc3Sc3ccccc32)CC1 [Quetiapine-a-2-NB590] | 1.03 | 0.93 | 1.09 | 0.84 | 1.13 | 1.03 | 1.08 | 1.05 | 0.88 | 0.85 | 1.07 | 0.95 | 0.94 | 0.95 | 1.02 | 0.68 | 1.00 | 1.01 | 
2 | O=C(CCOCCOCCOCCOCCNC(=O)CCc1ccc2n1[B-](F)(F)[N+]1=C(c3ccc[nH]3)C=CC1=C2)NCCCN1CCN(C2=Nc3cc(Cl)ccc3Nc3ccccc32)CC1 [Clozapine-a-2-NB590] |  |  |  |  |  |  |  |  |  |  |  |  |  |  |  |  |  |  | NanoBRET Fold Response ([1]; 0.1μM tracer): 1.03; NanoBRET Fold Response ([1]; 1μM tracer): 0.95; NanoBRET Fold Response ([2]; 0.1μM tracer): 1.02; NanoBRET Fold Response ([2]; 1μM tracer): 1.15; NanoBRET Fold Response ([3]; 0.1μM tracer): 1.09; NanoBRET Fold Response ([3]; 1μM tracer): 0.88; NanoBRET Fold Response ([4]; 0.1μM tracer): 0.99; NanoBRET Fold Response ([4]; 1μM tracer): 1.10; NanoBRET Fold Response ([5]; 0.1μM tracer): 0.99; NanoBRET Fold Response ([5]; 1μM tracer): 1.03; NanoBRET Fold Response ([6]; 0.1μM tracer): 1.12; NanoBRET Fold Response ([6]; 1μM tracer): 0.97; NanoBRET Fold Response ([7]; 0.1μM tracer): 1.18; NanoBRET Fold Response ([7]; 1μM tracer): 1.33; NanoBRET Fold Response ([8]; 0.1μM tracer): 1.10; NanoBRET Fold Response ([8]; 1μM tracer): 1.10; NanoBRET Fold Response ([9]; 0.1μM tracer): 1.01; NanoBRET Fold Response ([9]; 1μM tracer): 0.94
3 | N#CN=C(NCCCOc1cccc(CN2CCCCC2)c1)NCCNC(=O)CCOCCOCCOCCOCCNC(=O)CCc1ccc2n1[B-](F)(F)[N+]1=C(c3ccc[nH]3)C=CC1=C2 [Aminopotentidine-2-NB590] | 1.01 | 1.04 | 0.99 | 1.06 | 0.90 | 1.01 | 1.01 | 0.98 | 1.05 | 0.98 | 1.01 | 1.00 | 1.03 | 1.02 | 1.02 | 1.02 | 1.02 | 1.02 | 
4 | O=C(CCc1ccc2n1[B-](F)(F)[N+]1=C(c3ccc[nH]3)C=CC1=C2)NCc1ccc(C(=O)NCCOCCOCCNCC(O)COc2cccc3ccccc23)cc1 (stereo not drawn) [Propranolol-3-NB590] |  |  |  |  |  |  |  |  |  |  |  |  |  |  |  |  |  |  | NanoBRET Fold Response ([1]; 0.1μM): 1.00; NanoBRET Fold Response ([1]; 1μM): 1.00; NanoBRET Fold Response ([2]; 0.1μM): 1.07; NanoBRET Fold Response ([2]; 1μM): 1.00; NanoBRET Fold Response ([3]; 0.1μM): 1.05; NanoBRET Fold Response ([3]; 1μM): 0.98; NanoBRET Fold Response ([4]; 0.1μM): 1.04; NanoBRET Fold Response ([4]; 1μM): 1.02; NanoBRET Fold Response ([5]; 0.1μM): 0.54; NanoBRET Fold Response ([5]; 1μM): 1.01; NanoBRET Fold Response ([6]; 0.1μM): 1.07; NanoBRET Fold Response ([6]; 1μM): 1.03; NanoBRET Fold Response ([7]; 0.1μM): 1.34; NanoBRET Fold Response ([7]; 1μM): 0.95; NanoBRET Fold Response ([8]; 0.1μM): 1.02; NanoBRET Fold Response ([8]; 1μM): 1.05; NanoBRET Fold Response ([9]; 0.1μM): 1.02; NanoBRET Fold Response ([9]; 1μM): 0.97
5 | O=C(CCc1ccc2n1[B-](F)(F)[N+]1=C(c3ccc[nH]3)C=CC1=C2)NCc1ccc(C(=O)NCCOCCC(=O)N[C@@H]2CC[C@@]3(O)[C@H]4Cc5ccc(O)c6c5[C@@]3(CCN4CC3CC3)[C@H]2O6)cc1 [Naltrexone-3-NB590] | 1.30 | 0.97 | 0.92 | 1.03 | 0.24 | 0.95 | 1.25 | 1.14 | 1.05 | 0.98 | 0.90 | 1.10 | 1.07 | 1.36 | 0.98 | 0.98 | 0.86 | 0.95 | 
